Test results as given in patent publication US9689040B2, “Selective inhibitors of tumor-initiating cells” (Children's Medical Center Corporation, priority 2011, dated 2017).

How the values were obtained:
[1] = system: mouse TNBC primary tumor fragments; assay: Primary TNBC tumor fragments from TP53 heterozygous Balb/c mice implanted in mammary fat-pad (V22 tumors); assay type: in vivo; settings: 1.6 mg/kg weekly i.v. infusion
Protocol: (6A) Proteasome activity in protein lysates from BPLER tumors 18 hours after intratumoral (i.t.), intraperithoneal (i.p) or intravenous (i.v.) treatment with bortezomib at the indicated dose, as determined by ProteasomeGlo assay. Proteasome activity in BPLER treated with bortezomib in vitro is shown as control. (6B-6E) Mean tumor volume (6B, 6D) in BPLER tumor-bearing mice after treatment with bortezomib or DMSO at the indicated dose, schedule and route of administration. Median tumor weight was measured at time of sacrifice (6C, 6E). […] (6F) Immunoblot analysis of protein lysates from BPLER tumors 18 hours after 1 intravenous dose of bortezomib at 1.6 mg/kg bortezomib or DMSO, showing efficient Noxa induction and caspase-3 and PARP1 cleavage after bortezomib treatment. (6G) Mean tumor volume in MB-468 tumor-bearing mice after intravenous treatment with 1.6 mg/kg bortezomib weekly. (6H) Schematic diagram illustrating generation of mouse TNBC primary tumor fragments for bortezomib-based therapy studies. […] 4T1-E tumors are shown as control. (6I, 6J) Mean V22 tumor volume (6I) after weekly intravenous infusion of bortezomib (1.6 mg/kg) or DMSO. Treatment was started 2 days after implantation of primary tumor fragments. […] The top and the bottom of each box represent the 75th and 25th percentile of tumor weight, respectively. […]

[2] = system: unselected breast cancer patients; settings: eight phase I/II studies, chemotherapy combination regimens with bortezomib; cited from earlier work
[3] = system: BPE, HMLER and BPLER cells; assay: Cell cycle distribution (propidium iodide DNA staining)
[4] = system: epithelial TNBC / basal-like cells (MB-468, HCC-1143, HCC-1937, 4T1-E); assay: cells; settings: 24 h, read-out: decrease of cell viability
[5] = system: mesenchymal MDA-MB-231 and MDA-MB-436 cells; settings: MB-231, MB-436
[6] = system: mesenchymal MDA-MB-231 and MDA-MB-436 cells; assay: cells; settings: Homo sapiens, 24 h, read-out: decrease of cell viability
proteasome = proteasome (Homo sapiens, UniProt P28074); assay: Proteasome activity in BPLER and HMLER cells (ProteaGlo assay); settings: 6 hr after treatment
BPLER tumors = assay: BPLER tumor xenografts in Nu/J mice (tumor volume, tumor weight); assay type: in vivo, mouse
Protocol: We first assessed the effect of bortezomib on pre-established subcutaneous BPLER xenografts in nude mice. […] To reduce experimental variability, we selected mice bearing tumors of homogenous size (˜[…] in diameter after 3 weeks from injection), which were randomized into two groups. Each group received 6 doses of either vehicle (DMSO) or bortezomib at 0.5 mg/kg i.p. q3d over a 16-day period, respectively. At the end of the treatment period, mice were sacrificed and tumor weight was assessed.
Bortezomib is already in the clinic for treatment of multiple myeloma and other lymphomas. To start investigating potential clinical efficacy in TNBC, BPLER tumor-bearing mice were given 1 dose (0.8 mg/kg) of bortezomib intratumorally (i.t.), intraperitoneally (i.p) or intravenously (i.v.) and proteasome activity in the tumor was assessed after 18 hours (FIG. 6A). […] To assess therapeutic efficacy, we administered bortezomib every 3 days (0.8 mg/kg i.t.) or weekly (1.6 mg/kg i.v.) after BPLER tumors, implanted in the flank of Nu/J mice, became palpable. BPLER tumor outgrowth was assessed by tumor volume during the treatment period and by tumor weight at the time of sacrifice.
All animal procedures were performed with IACUC approval. Exponentially growing cells were trypsinized with TRYPLE EXPRESS (Invitrogen), resuspended in a 1:1 WIT-Matrigel solution at the indicated numbers, and injected subcutaneously in the flank of 4-week old female Nu/J mice (Stock #002019, Jackson Laboratories). […] Mice were sacrificed 16 days after beginning treatment and tumor weight was assessed.

proteasome, sequence (P28074 60-263): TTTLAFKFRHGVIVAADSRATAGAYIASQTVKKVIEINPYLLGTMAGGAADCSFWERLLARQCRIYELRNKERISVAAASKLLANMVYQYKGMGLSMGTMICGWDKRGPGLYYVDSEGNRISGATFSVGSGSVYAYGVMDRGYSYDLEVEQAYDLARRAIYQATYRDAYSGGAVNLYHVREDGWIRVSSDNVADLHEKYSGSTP

CC(C)C[C@H](NC(=O)[C@H](Cc1ccccc1)NC(=O)c1cnccn1)B(O)O [bortezomib]
secondary tumors smaller compared to control mice [1]: ~90% | secondary tumors weighed less compared to control mice [1]: ~80% | partial response rates [2]: 10-20% | cell cycle distribution ([3]; BPE cells, 24 hours): underwent G2/M arrest | cell cycle distribution ([3]; BPLER cells, low dose): did not undergo cell cycle arrest | cell cycle distribution ([3]; HMLER cells, low dose): underwent G2/M arrest | cytotoxicity at 0.0125 µM [4]: 50 to 65% | sensitivity of mesenchymal breast cancer cell lines [5]: resistant | cytotoxicity at 0.0125 µM [6]: 20 to 25% | proteasomal activity in BPLER and HMLER (proteasome): similarly inhibited proteasome activity | reduction of median tumor weight (BPLER tumors; 0.5 mg/kg i.p. q3d, 6 doses, after 16 days): 54% | tumors smaller than in control mice (tumor volume, average) (BPLER tumors; 0.8 mg/kg i.t. every 3 days): 85% | tumors weighed less than in control mice (average) (BPLER tumors; 0.8 mg/kg i.t. every 3 days): 91% | tumors smaller than in control mice (tumor volume, average) (BPLER tumors; 1.6 mg/kg i.v. weekly): 59% | tumors weighed less than in control mice (average) (BPLER tumors; 1.6 mg/kg i.v. weekly): 63% | Noxa induction and caspase 3 cleavage in tumors (BPLER tumors; immunohistochemistry and western blot): induced Noxa induction and caspase 3 cleavage in vivo
